Experimental data: patent publication US20130316374A1, “BREAST CANCER DIAGNOSTICS” (IMBA - INSTITUT FUR MOLEKULARE BIOTECHNOLOGIE GMBH, priority 2010, published 2013)

What was measured:
Format in all cases: in vivo, mouse
Lin-CD24+CD49f^hi cells = test: FACS quantification of MaSC-enriched CD24+CD49high population from mammary glands; conditions: MPA for 3 days
Procedure: (§1) a, Epithelial proliferation in mammary glands of control littermates and RANK^Δmam females 3 days after sham treatment and MPA implantation. Proliferation was determined by in situ Ki67 immunostaining. b,c, Marked increase of the stem cell-enriched CD24^+CD49^high population (MaSC) in MPA-treated mammary glands in control but not in RANK^Δmam mammary glands. b, Representative FACS profiles showing CD24 and CD49 expression of lineage negative (CD31^− (endothelial cells) CD45^− (hematopoietic cells) […] (erythroid cells)) of mammary MaSCs from MPA- or sham-treated 8-week old virgin females. c, Quantification of MaSC-enriched CD24^+CD49^high population from mammary glands of MPA- or sham-treated virgin RANK^Δmam and littermate control females. For all MaSCs experiments mice were treated with MPA for 3 days. n=4 per group+/−sem. *P<0.05; ***P<0.001 (Student's t-test).
(§2) Recently it has been reported that endogenous progesterone affects the numbers of Lin-CD24+CD49f^hi stem cells during pregnancy^15 and the estrous cycle^16. In both studies, the RANKL/RANK system was implicated based on in vivo whole body Ab blocking studies and RT-PCR expression, however, it was not known whether this is a direct effect of RANKL-RANK in mammary epithelial cells rather than a secondary effect. Therefore it was assayed whether progestins such as MPA can also expand Lin-CD24+CD49f^hi cells.

mammary epithelial cells = test: Epithelial proliferation in mammary glands, in situ Ki67 immunostaining
Procedure: as §1
At least 1000 mammary gland epithelial cells were counted per mouse. n=3 mice per genotype. **P<0.005; ***P<0.001 (Student's t-test). b, Quantification of in situ Ki67 immunostained cells per acinus from mammary glands of control littermate and RANK^Δmam females on day 3 after MPA s.c. implantation. […] At least 1000 cells were counted per mammary gland. n=3 per genotype. In b, and c, data are shown as percentage of acini/ducts with low (<20% of epithelial cells are Ki67^+), medium (20-80% of epithelial cells are Ki67^+) and high (>80% of epithelial cells are Ki67^+) numbers of proliferating cells+/−sem. ***P<0.001; *P<0.03 (Student's t-test). d, Epithelial proliferation in mammary glands of control littermates and RANK^Δmam females 1 day after i.p. injection of PBS or RANKL (1 μg). Proliferation was determined in situ Ki67 immunostaining. Magnifications ×40. e, Quantification of epithelial proliferation 1 day after i.p. injection of PBS or RANKL (1 μg). Mean percentages of Ki67 positive cells+/−sem are shown. *P<0.03; n=5 (Student's t-test).
For histological analysis, 5 μm sections were cut and stained with hematoxylin and eosin (H&E). Whole-mount staining of mammary glands was performed as described. For immunoperoxidase staining paraffin-embedded sections were […] and antigenic epitopes exposed using a 10 mM citrate buffer or microwaving. Sections were incubated with antibodies to cytokeratine 5, cytokeratine 14, E-cadherin, anti-Ki67 (Novocastra) and anti-active Caspase 3 (Cell Signaling) and visualized using peroxidase-conjugated secondary antibodies. Histomorphometric indices (proliferation and apoptosis) were calculated as the number of positive epithelial cells divided by the total number of epithelial cells, with no fewer than 1000 nuclei for Ki67 stainings and no fewer than 5000 cells for active Caspase 3 staining counted per section.
as §2

RANKL = RANKL expression in purified mammary epithelial cells (qRT-PCR, Western blot); conditions: nulliparous wild type females, 3 days after implantation/oral gavage
Procedure: a,b, MPA induces RANKL expression in mammary epithelial cells. Nulliparous wild type females were treated with oral gavage of DMBA or oil vehicle, s.c. implanted with slow-release MPA pellets, or treated with sham surgery. a, RANKL mRNA was determined in purified mammary epithelial cells by qRT-PCR 3 days after implantation/oral gavage. Data are shown as fold change compared to sham treatment+/−sem. n=3 mice per group. b, Expression of soluble (s) RANKL protein (19 kDa) was assayed on cell lysates from purified mammary epithelial cells by Western blot 3 days after treatment with oil vehicle, DMBA, MPA, or sham surgery. β-actin is shown as a loading control. […] Data are shown as percentage of tumor-free mice after the last DMBA challenge. No significant difference was found between the Cre+ and the Cre− control groups. Median tumor onset for Cre^+ controls was 9 days, for Cre^− controls 11 days, and for RANK^Δmam females 30 days after the last DMBA treatment. d, Representative Southern blot of MPA/DMBA-induced mammary tumors derived from RANK^flox/+; MMTV-Cre+ and RANK^flox/Δ; MMTV-Cre+ (RANK^Δmam) females. […]
Total RNA of tumors was prepared using the RNeasy Mini Kit (Qiagen), according to the manufacturer's instructions. Total RNA (2 μg) was subjected to quantitative (q)RT-PCR analysis. […]

Molecule | expansion of Lin-CD24+CD49f^hi cells (Lin-CD24+CD49f^hi cells; RANK^Δmam females) | expansion of Lin-CD24+CD49f^hi cells (Lin-CD24+CD49f^hi cells; control females) | MPA-induced proliferation of mammary epithelial cells (mammary epithelial cells; RANK^Δmam females) | acini with very low proliferation rates (Ki67) (mammary epithelial cells; RANK^Δmam females, day 3 after MPA s.c. implantation) | acini with signs of medium to high proliferation (Ki67) (mammary epithelial cells; control females, day 3 after MPA s.c. implantation) | proliferation of mammary epithelial cells (mammary epithelial cells; wild type population, MPA treatment) | RANKL mRNA and protein expression in mammary epithelial cells (RANKL) | proliferation of mammary gland epithelial cells (mammary epithelial cells; nulliparous females, 1 day after i.p. injection of RANKL (1 μg))
CC(=O)O[C@]1(C(C)=O)CC[C@H]2[C@@H]3C[C@H](C)C4=CC(=O)CC[C@]4(C)[C@H]3CC[C@@]21C [MPA, medroxyprogesterone acetate] | did not occur | two-fold expansion | significantly reduced | more than 60% | ~80% | triggers massive proliferation of mammary epithelial cells | induced RANKL mRNA and protein expression | –
RANKL: Receptor Activator of NF-κB Ligand; recombinant murine RANKL used for stimulation (protein, UniProt O35235 139-316, looked up) Tumor necrosis factor ligand …: FSGAPAMMEGSWLDVAQRGKPEAQPFAHLTINAASIPSGSHKVTLSSWYHDRGWAKISNMTLSNGKLRVNQDGFYYLYANICFRHHETSGSVPTDYLQLMVYVVKTSIKIPSSHNLMKGGSTKNWSGNSEFHFYSINVGGFFKLRAGEEISIQVSNPSLLDPDQDATYFGAFKVQDID | – | – | – | – | – | – | – | triggered proliferation of mammary gland epithelial cells
